Data as given in ChEMBL document CHEMBL1158213, “Bioactive steroidal alkaloids from Solanum umbelliferum” (1996).
Active and inactive are the calls of the source. No cut-off for these calls is given here.

Key:
Saccharomyces cerevisiae [1] = experiment: DNA damaging activity against DNA repair-deficient RS 167N (rad6) yeast assessed as drug concentration required to produce 12 mm zone of inhibition up to 8000 ug/mL; assay type: functional, organism-based
Saccharomyces cerevisiae [2] = experiment: DNA damaging activity against DNA repair-deficient RS 321 yeast assessed as drug concentration required to produce 12 mm zone of inhibition up to 8000 ug/mL; assay type: functional, organism-based
Saccharomyces cerevisiae [3] = experiment: DNA damaging activity against DNA repair-deficient RS 188N (RAD+) yeast assessed as drug concentration required to produce 12 mm zone of inhibition up to 8000 ug/mL; assay type: functional, organism-based
Saccharomyces cerevisiae [4] = experiment: DNA damaging activity against DNA repair-deficient RS 322YK (rad 52Y) yeast assessed as drug concentration required to produce 12 mm zone of inhibition up to 8000 ug/mL; assay type: functional, organism-based
Saccharomyces cerevisiae [5] = experiment: DNA damaging activity against DNA repair-deficient RS 322YK (rad 52Y) yeast assessed as drug concentration required to produce 12 mm zone of inhibition; assay type: functional
Saccharomyces cerevisiae [6] = experiment: DNA damaging activity against DNA repair-deficient RS 188N (RAD+) yeast assessed as drug concentration required to produce 12 mm zone of inhibition; assay type: functional
Saccharomyces cerevisiae [7] = experiment: DNA damaging activity against DNA repair-deficient RS 167N (rad6) yeast assessed as drug concentration required to produce 12 mm zone of inhibition; assay type: functional
Saccharomyces cerevisiae [8] = experiment: DNA damaging activity against DNA repair-deficient RS 321 yeast assessed as drug concentration required to produce 12 mm zone of inhibition; assay type: functional

Row | SMILES | Activity (Saccharomyces cerevisiae [1]) | Activity (Saccharomyces cerevisiae [2]) | Activity (Saccharomyces cerevisiae [3]) | Activity (Saccharomyces cerevisiae [4]) | IC12 (Saccharomyces cerevisiae [5]) | IC12 (Saccharomyces cerevisiae [6]) | IC12 (Saccharomyces cerevisiae [7]) | IC12 (Saccharomyces cerevisiae [8])
1 | C[C@@H]1CC[C@]2(NC1)O[C@H]1C[C@H]3[C@@H]4CC=C5C[C@@H](O[C@@H]6O[C@H](CO)[C@@H](O)[C@H](O)[C@H]6O)CC[C@]5(C)[C@H]4CC[C@]3(C)[C@H]1[C@@H]2C | inactive | inactive | inactive | inactive | – | – | – | –
2 | CC[C@@]1(O)C(=O)OCc2c1cc1n(c2=O)Cc2cc3ccccc3nc2-1 [CAMPTOTHECIN] | – | – | – | – | 0.9 µg/mL | 100 µg/mL | – | –
3 | C[C@@H]1CC[C@]2(NC1)O[C@H]1C[C@H]3[C@@H]4CC=C5C[C@@H](O)CC[C@]5(C)[C@H]4CC[C@]3(C)[C@H]1[C@@H]2C [SOLASODINE] | – | – | – | – | 5 µg/mL | > 6.1 µg/mL | > 10 µg/mL | 1.9 µg/mL
4 | CC(=O)O[C@H]1CC[C@@]2(C)C(=CC[C@H]3[C@@H]4C[C@@H]5O[C@@]6(CC[C@@H](C)CN6C(C)=O)[C@@H](C)[C@@H]5[C@@]4(C)CC[C@@H]32)C1 | inactive | inactive | inactive | inactive | – | – | – | –
5 | CC(=O)N1C[C@H](C)CC[C@@]12O[C@H]1C[C@H]3[C@@H]4CC=C5C[C@@H](O)CC[C@]5(C)[C@H]4CC[C@]3(C)[C@H]1[C@@H]2C | inactive | inactive | inactive | inactive | – | – | – | –
6 | CC(=O)O[C@H]1CC[C@@]2(C)C(=CC[C@H]3[C@@H]4C[C@@H]5O[C@@]6(CC[C@@H](C)CN6)[C@@H](C)[C@@H]5[C@@]4(C)CC[C@@H]32)C1 | – | – | – | – | 21 µg/mL | 15.7 µg/mL | 30 µg/mL | 3 µg/mL
